From ChEMBL document CHEMBL3431459, “Roche carnitine palmitoyltransferase modulator screening data (supplementary data associated with the publication CHEMBL2216752)”
Values after ≈ are worked out from the molar mass of the structure shown.

Key:
[1] = biological target: T1, Carnitine O-palmitoyltransferase 2, mitochondrial (Homo sapiens, UniProt P23786); test: (§1) SUPPLEMENTARY: Inhibition of Carnitine palmitoyltransferase 2
T1 sequence (P23786 whole entry): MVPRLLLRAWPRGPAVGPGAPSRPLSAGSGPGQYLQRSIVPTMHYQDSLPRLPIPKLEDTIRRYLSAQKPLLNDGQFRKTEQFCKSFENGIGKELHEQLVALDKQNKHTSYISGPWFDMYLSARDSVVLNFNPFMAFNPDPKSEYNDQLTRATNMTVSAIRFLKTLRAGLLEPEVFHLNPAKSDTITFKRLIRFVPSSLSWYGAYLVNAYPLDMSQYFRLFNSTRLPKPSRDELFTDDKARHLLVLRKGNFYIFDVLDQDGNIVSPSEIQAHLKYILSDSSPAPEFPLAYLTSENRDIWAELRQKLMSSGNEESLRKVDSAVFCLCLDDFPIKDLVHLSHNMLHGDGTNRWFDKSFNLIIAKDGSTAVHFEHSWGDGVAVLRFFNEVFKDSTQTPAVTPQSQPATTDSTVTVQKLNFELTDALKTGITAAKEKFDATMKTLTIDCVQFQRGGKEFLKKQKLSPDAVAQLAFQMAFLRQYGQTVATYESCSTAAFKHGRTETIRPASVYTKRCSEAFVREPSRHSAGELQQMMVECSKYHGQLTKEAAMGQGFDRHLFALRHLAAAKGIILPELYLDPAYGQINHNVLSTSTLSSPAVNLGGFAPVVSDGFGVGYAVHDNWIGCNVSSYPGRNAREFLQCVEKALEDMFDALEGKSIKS

[2] = biological target: T2, Carnitine O-palmitoyltransferase 2, mitochondrial (Rattus norvegicus, UniProt P18886); test: as §1
T2 sequence (P18886 whole entry): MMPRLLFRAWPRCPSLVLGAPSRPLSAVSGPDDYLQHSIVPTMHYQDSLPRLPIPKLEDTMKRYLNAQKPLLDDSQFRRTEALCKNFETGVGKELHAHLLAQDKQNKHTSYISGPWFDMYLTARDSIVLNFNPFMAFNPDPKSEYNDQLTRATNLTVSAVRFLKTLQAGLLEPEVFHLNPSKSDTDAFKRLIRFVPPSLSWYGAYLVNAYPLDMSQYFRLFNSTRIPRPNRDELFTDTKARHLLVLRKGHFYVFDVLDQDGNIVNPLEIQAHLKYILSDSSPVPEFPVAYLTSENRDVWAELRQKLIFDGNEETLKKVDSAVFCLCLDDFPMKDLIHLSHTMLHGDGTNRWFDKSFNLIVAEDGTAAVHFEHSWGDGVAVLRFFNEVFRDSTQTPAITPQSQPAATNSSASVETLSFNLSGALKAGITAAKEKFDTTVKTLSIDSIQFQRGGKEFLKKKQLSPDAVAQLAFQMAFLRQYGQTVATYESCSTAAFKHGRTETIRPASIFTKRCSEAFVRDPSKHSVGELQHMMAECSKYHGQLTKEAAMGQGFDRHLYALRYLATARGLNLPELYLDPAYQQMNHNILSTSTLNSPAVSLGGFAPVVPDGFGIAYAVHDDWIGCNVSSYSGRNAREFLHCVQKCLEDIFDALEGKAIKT

[3] = biological target: T3, Carnitine O-palmitoyltransferase 1, muscle isoform (Homo sapiens, UniProt Q92523); test: SUPPLEMENTARY: Inhibition of Carnitine palmitoyltransferase 1, muscle isoform; design: species or system Muscle tissue
T3 sequence (Q92523 whole entry): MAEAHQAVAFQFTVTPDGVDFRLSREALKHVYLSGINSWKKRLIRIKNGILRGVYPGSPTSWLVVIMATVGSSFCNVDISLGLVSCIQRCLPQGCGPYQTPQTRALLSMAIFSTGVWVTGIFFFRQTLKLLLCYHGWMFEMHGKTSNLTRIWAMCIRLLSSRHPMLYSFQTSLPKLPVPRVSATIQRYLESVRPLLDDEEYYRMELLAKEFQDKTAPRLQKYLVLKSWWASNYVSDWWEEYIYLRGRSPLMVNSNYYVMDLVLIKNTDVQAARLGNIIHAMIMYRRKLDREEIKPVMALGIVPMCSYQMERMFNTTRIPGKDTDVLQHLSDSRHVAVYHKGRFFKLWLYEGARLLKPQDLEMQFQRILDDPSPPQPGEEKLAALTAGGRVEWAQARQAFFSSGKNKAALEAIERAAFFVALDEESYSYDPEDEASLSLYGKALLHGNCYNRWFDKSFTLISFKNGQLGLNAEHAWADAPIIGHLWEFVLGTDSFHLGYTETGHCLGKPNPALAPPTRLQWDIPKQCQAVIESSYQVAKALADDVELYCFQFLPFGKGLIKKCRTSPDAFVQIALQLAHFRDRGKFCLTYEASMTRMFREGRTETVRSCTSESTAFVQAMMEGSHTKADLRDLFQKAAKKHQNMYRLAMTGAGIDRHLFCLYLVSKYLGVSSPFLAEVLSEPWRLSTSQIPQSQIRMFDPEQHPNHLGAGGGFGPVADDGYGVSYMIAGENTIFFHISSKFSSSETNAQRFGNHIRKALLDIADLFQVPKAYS

[4] = biological target: T4, Carnitine O-palmitoyltransferase 1, liver isoform (Rattus norvegicus, UniProt P32198); test: (§2) SUPPLEMENTARY: Inhibition of Carnitine palmitoyltransferase 1, liver isoform
T4 sequence (P32198 whole entry): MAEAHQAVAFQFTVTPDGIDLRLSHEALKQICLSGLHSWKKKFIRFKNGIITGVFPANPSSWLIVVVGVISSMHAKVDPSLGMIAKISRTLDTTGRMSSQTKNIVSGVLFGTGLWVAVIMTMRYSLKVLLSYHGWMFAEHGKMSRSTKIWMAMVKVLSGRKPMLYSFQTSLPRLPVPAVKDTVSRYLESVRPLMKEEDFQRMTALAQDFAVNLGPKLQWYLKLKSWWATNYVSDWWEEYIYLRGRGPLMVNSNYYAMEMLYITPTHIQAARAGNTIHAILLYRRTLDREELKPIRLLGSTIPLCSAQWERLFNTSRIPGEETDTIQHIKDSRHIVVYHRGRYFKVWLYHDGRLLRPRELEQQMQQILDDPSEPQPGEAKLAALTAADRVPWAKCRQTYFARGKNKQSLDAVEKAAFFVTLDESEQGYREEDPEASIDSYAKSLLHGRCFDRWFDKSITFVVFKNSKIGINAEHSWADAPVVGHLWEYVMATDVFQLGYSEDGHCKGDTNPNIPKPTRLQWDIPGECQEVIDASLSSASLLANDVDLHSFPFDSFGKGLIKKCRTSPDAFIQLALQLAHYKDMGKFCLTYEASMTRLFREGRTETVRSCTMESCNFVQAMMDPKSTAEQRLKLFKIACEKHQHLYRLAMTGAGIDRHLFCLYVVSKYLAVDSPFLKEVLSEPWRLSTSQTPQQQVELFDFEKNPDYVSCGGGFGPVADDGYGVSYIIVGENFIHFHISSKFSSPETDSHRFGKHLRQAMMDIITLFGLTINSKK

[5] = biological target: T5, Carnitine O-palmitoyltransferase 1, liver isoform (Homo sapiens, UniProt P50416); test: as §2
T5 sequence (P50416 whole entry): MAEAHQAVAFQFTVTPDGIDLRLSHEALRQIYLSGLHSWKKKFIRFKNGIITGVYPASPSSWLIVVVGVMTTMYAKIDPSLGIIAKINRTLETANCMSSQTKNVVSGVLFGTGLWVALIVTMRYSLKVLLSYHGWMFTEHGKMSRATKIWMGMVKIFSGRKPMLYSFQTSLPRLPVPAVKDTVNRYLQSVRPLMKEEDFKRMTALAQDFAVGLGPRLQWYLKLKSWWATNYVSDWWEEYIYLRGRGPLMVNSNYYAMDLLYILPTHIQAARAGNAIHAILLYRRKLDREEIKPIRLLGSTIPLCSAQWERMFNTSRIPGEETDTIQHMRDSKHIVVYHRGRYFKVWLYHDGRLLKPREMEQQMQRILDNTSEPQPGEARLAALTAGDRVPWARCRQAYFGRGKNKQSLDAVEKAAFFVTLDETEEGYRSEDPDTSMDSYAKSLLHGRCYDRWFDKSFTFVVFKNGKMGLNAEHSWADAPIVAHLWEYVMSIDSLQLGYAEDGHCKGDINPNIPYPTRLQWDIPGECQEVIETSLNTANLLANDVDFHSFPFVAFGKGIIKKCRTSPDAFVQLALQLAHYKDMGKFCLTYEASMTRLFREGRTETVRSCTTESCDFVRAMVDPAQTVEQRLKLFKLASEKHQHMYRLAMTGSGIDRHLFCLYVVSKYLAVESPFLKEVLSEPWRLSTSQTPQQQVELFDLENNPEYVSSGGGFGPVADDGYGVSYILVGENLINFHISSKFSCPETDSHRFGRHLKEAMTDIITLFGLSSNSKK

[6] = SUPPLEMENTARY: PAMPA permeability assay; type: physicochemical; details: read-out: Permeability
[7] = SUPPLEMENTARY: Lipophilicity (log D) Determination by high-throughput shake-flask; type: physicochemical; details: octanol/water
[8] = SUPPLEMENTARY: Lyophilisation Solubility Assay (LYSA); type: physicochemical; details: read-out: Kinetic_solubility

Row | Structure (SMILES) | IC50 [1] [µM] | IC50 [2] [µM] | IC50 [3] [µM] | IC50 [4] [nM] | IC50 [5] [nM] | Papp [6] [×10⁻⁶ cm/s] | logD [7] | solubility kinetic [8] [µg/mL]
1 | Cc1sc([C@H]2CCCCN2C(=O)COc2ccccc2)nc1-c1cccc(C(=O)O)c1 | 53 | > 100 | 30.3 | 118 | 92.3 | 6.19 | 0.73 | 402 (≈ 921 µM)
2 | O=C(O)Cc1csc(NC(=O)c2ccc3c(c2)N(S(=O)(=O)c2cccc(Cl)c2)CCO3)n1 | > 100 | > 100 | 0.618 | 11.5 | 22.6 | 2.91 | 0.37 | 54 (≈ 109 µM)
3 | COC[C@@H]1CCN(NC(=O)c2cccc(-c3n[nH]c([C@H]4CCCCN4C(=O)COc4ccccc4)n3)c2)C1 | 74.3 | 73.6 | > 100 | 1300 | 159 | 3.31 | 2.45 | 229 (≈ 442 µM)
4 | O=C(c1cc(-c2noc([C@H]3CCCCN3C(=O)COc3ccccc3)n2)ccn1)N1CCOCC1 | > 100 | 89.7 | > 100 | 899 | 80.4 | 5.89 | 1.75 | > 523
5 | COc1ccc(Cl)cc1S(=O)(=O)N1COCc2ccc(C(=O)Nc3ccc(C(=O)O)cc3)cc21 | 3.45 | 16.6 | 38.6 | 105 | 59.7 | 2.16 | 0.32 | 60 (≈ 119 µM)
6 | O=C(COc1ccccc1)N1CCCC[C@@H]1c1nc(-c2ccc(S(=O)(=O)NCCO)cc2)no1 | 13.4 | 49.3 | > 100 | 406 | 60.8 | 2.27 | 2.29 | 65 (≈ 134 µM)
7 | O=C1CN(c2cccc(-c3noc([C@H]4CCCCN4C(=O)COc4ccccc4)n3)c2)C(=O)N1 | 50.6 | > 100 | > 100 | 103 | 50.6 | 3.82 | 2.62 | 14 (≈ 30.3 µM)
8 | O=C(COc1ccccc1)N1CCCC[C@@H]1c1nc(-c2ccc3[nH]c(=O)[nH]c3c2)no1 | 69.4 | 15 | 13.2 | 475 | 35.4 | 2.43 | 2.51 | 44 (≈ 105 µM)
9 | COc1ccc(Cl)cc1S(=O)(=O)N(C)c1cc(C(=O)Nc2nc(CC(=O)O)cs2)cc2c1OCCO2 | > 100 | > 100 | 1.56 | 110 | 80.5 | 1.28 | -0.18 | 382 (≈ 690 µM)
10 | O=C(Nc1ccc(-c2nnn[nH]2)cc1)c1cccc(NS(=O)(=O)c2cccc(Cl)c2)c1 | 54.6 | > 100 | 0.226 | 21.8 | 20.1 | 0.0275 | 0.5 | 16 (≈ 35.2 µM)
